The record followed here is PubChem BioAssay AID651817 (Broad Institute, 2012).

Calls of active or inactive are those of the source.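 Rule for the calls: active = compound whose fitted luminescence drop, meaning cytotoxicity, reaches half effect at most twice its top valid tested dose; inconclusive = flat curve with a moderate drop, or an unreliable fit; inactive = rise instead of drop, flat response, or weaker potency.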

A short description of test [1]: mouse fibroblast viability loss – cell-based, cherry-pick samples, set 2, cytotoxicity control for T. cruzi growth inhibitor project, dose response (AID 651817). The settings on record: NIH/3T3 viability, ATP luminescence (CellTiter-Glo), 90 h. (In general: In ATP-based viability assays light output follows the ATP content of the culture.)
Test [2] deals with NIH/3T3 viability, ATP luminescence (CellTiter-Glo), 90 h. Described as above.

Turning to `C[C@H]1CN([C@@H](C)CO)C(=O)c2cccc(NC(=O)c3ccncc3)c2O[C@@H]1CN(C)Cc1ccccc1`, the activity change, negative = cytotoxicity in test [1] (at 21 µM (top of the series)) was 10.2% (inactive).

As for `C[C@@H]1CN([C@H](C)CO)C(=O)c2cccc(NC(=O)c3ccncc3)c2O[C@H]1CN(C)CC1CCCCC1`, in test [1] (at 19.5 µM (top of the series)), the activity change, negative = cytotoxicity is -12.3% (inactive).

With `C[C@@H]1CN([C@H](C)CO)C(=O)Cc2cc(NS(=O)(=O)c3ccccc3)ccc2O[C@@H]1CN(C)S(=O)(=O)c1ccc(Cl)cc1`, the activity change, negative = cytotoxicity in test [1] (at 19.5 µM (top of the series)) is -10.7% (inactive).

Take `COc1ccc(CN(C)C[C@@H]2Oc3c(NC(=O)Nc4ccc(C(F)(F)F)cc4)cccc3C(=O)N([C@@H](C)CO)C[C@H]2C)cc1`: the activity change, negative = cytotoxicity in test [1] (at 19.5 µM (top of the series)) was -16.2% (inactive).

For `C[C@@H]1CN([C@@H](C)CO)C(=O)c2cccc(NC(=O)NC3CCCCC3)c2O[C@H]1CN(C)S(=O)(=O)c1ccc(F)cc1`, the activity change, negative = cytotoxicity in test [1] (at 19.5 µM (top of the series)) is 12.1% (inactive).

On to `C[C@H]1CN([C@@H](C)CO)C(=O)c2cccc(NC(=O)c3ccncc3)c2O[C@@H]1CN(C)CC1CCCCC1`, for which the activity change, negative = cytotoxicity in test [1] (at 21 µM (top of the series)) is -19.3% (inactive).

In the case of `C[C@@H]1CN([C@H](C)CO)C(=O)c2cccc(NC(=O)c3ccncc3)c2O[C@@H]1CN(C)Cc1ccc(Oc2ccccc2)cc1`, the activity change, negative = cytotoxicity in test [1] (at 19.5 µM (top of the series)) was 14.7% (inactive).

Consider `Cc1ccc(S(=O)(=O)Nc2ccc3c(c2)CC(=O)N([C@H](C)CO)C[C@@H](C)[C@H](CN(C)Cc2ccc(Cl)c(Cl)c2)O3)cc1`, for which, in test [1] (at 3.8 µM (top of the series)), the activity change, negative = cytotoxicity was 33.6% (inactive).

Take `Cc1ccc(S(=O)(=O)N(C)C[C@@H]2Oc3ccc(NS(=O)(=O)c4ccc(Cl)cc4)cc3CC(=O)N([C@H](C)CO)C[C@@H]2C)cc1`: the activity change, negative = cytotoxicity in test [1] (at 21 µM (top of the series)) was -5.69% (inactive).

`C[C@@H]1CN([C@@H](C)CO)C(=O)c2cccc(NC(=O)c3ccncc3)c2O[C@@H]1CN(C)Cc1ccc(C(F)(F)F)cc1`: the activity change, negative = cytotoxicity in test [1] (at 19.5 µM (top of the series)) was -16.7% (inactive).

With `C[C@H]1CN([C@@H](C)CO)C(=O)c2cccc(NC(=O)c3ccncc3)c2O[C@H]1CN(C)Cc1ccc(Cl)c(Cl)c1`, the activity change, negative = cytotoxicity in test [1] (at 19.5 µM (top of the series)) was -14.4% (inactive).

As for `C[C@H]1CN([C@@H](C)CO)C(=O)c2cccc(NC(=O)c3nc4ccccc4s3)c2O[C@H]1CN(C)S(=O)(=O)c1ccc(Cl)cc1`, the activity change, negative = cytotoxicity in test [1] (at 19.5 µM (top of the series)) is 1.37% (inactive).

For the compound `Cc1noc(C)c1NC(=O)Nc1cccc2c1O[C@@H](CN(C)S(C)(=O)=O)[C@H](C)CN([C@H](C)CO)C2=O`, the activity change, negative = cytotoxicity in test [1] (at 19.5 µM (top of the series)) was -6.79% (inactive).

As to `C[C@H]1CN([C@@H](C)CO)C(=O)Cc2cc(NS(=O)(=O)c3ccc(F)cc3)ccc2O[C@@H]1CN(C)Cc1ccc(Cl)c(Cl)c1`, in test [1] (at 21 µM (top of the series)), the activity change, negative = cytotoxicity is -12.6% (inactive).

On to `Cc1ccc(S(=O)(=O)Nc2ccc3c(c2)CC(=O)N([C@H](C)CO)C[C@@H](C)[C@H](CN(C)S(=O)(=O)c2ccc(Cl)cc2)O3)cc1`, for which, in test [1] (at 19.5 µM (top of the series)), the activity change, negative = cytotoxicity is -23.3% (inactive).

Regarding `COc1ccc(CN(C)C[C@H]2Oc3c(NC(=O)Nc4ccc(C(F)(F)F)cc4)cccc3C(=O)N([C@@H](C)CO)C[C@H]2C)cc1`, the activity change, negative = cytotoxicity in test [1] (at 19.5 µM (top of the series)) was -11.1% (inactive).

On to `COc1ccc(CN(C)C[C@@H]2Oc3c(NC(=O)c4ccncc4)cccc3C(=O)N([C@@H](C)CO)C[C@H]2C)cc1`, for which the activity change, negative = cytotoxicity in test [1] (at 19.5 µM (top of the series)) is -18.8% (inactive).

`C[C@@H]1CN([C@@H](C)CO)C(=O)c2cccc(NC(=O)c3ccncc3)c2O[C@H]1CN(C)Cc1ccc(Oc2ccccc2)cc1`: the AC50 in test [2] was 20.5 µM.

Consider `C[C@@H]1CN([C@H](C)CO)C(=O)c2cccc(NC(=O)c3ccncc3)c2O[C@H]1CN(C)Cc1ccccc1`, for which, in test [1] (at 19.5 µM (top of the series)), the activity change, negative = cytotoxicity is 9% (inactive).

Take `Cc1ccc(S(=O)(=O)Nc2ccc3c(c2)CC(=O)N([C@@H](C)CO)C[C@H](C)[C@H](CN(C)S(=O)(=O)c2ccc(Cl)cc2)O3)cc1`: in test [1] (at 19.5 µM (top of the series)), the activity change, negative = cytotoxicity is -3.56% (inactive).

As to `C[C@@H]1CN([C@@H](C)CO)C(=O)c2cccc(NC(=O)c3nc4ccccc4s3)c2O[C@H]1CN(C)Cc1ccc2c(c1)OCO2`, the activity change, negative = cytotoxicity in test [1] (at 19.5 µM (top of the series)) was -20.2% (inactive).

Take `C[C@@H]1CN([C@@H](C)CO)C(=O)Cc2cc(NS(=O)(=O)c3ccccc3)ccc2O[C@H]1CN(C)S(=O)(=O)c1ccc(Cl)cc1`: the activity change, negative = cytotoxicity in test [1] (at 19.5 µM (top of the series)) is 0.768% (inactive).

`Cc1ccc(S(=O)(=O)Nc2ccc3c(c2)CC(=O)N([C@H](C)CO)C[C@@H](C)[C@@H](CN(C)Cc2ccccc2)O3)cc1`: the activity change, negative = cytotoxicity in test [1] (at 19.5 µM (top of the series)) was -12.9% (inactive).

Take `COc1ccc(CN(C)C[C@@H]2Oc3c(NC(=O)Nc4ccc(C(F)(F)F)cc4)cccc3C(=O)N([C@H](C)CO)C[C@@H]2C)cc1`: the activity change, negative = cytotoxicity in test [1] (at 19.5 µM (top of the series)) was -21.3% (inactive).

In the case of `Cc1ccc(S(=O)(=O)Nc2ccc3c(c2)CC(=O)N([C@H](C)CO)C[C@@H](C)[C@H](CN(C)Cc2ccccc2)O3)cc1`, the activity change, negative = cytotoxicity in test [1] (at 21 µM (top of the series)) is 9.12% (inactive).

`C[C@@H]1CN([C@H](C)CO)C(=O)c2cccc(NC(=O)c3ccncc3)c2O[C@@H]1CN(C)Cc1ccc(Cl)c(Cl)c1`: in test [1] (at 19.5 µM (top of the series)), the activity change, negative = cytotoxicity is -9.65% (inactive).

For the compound `Cc1ccc(S(=O)(=O)Nc2ccc3c(c2)CC(=O)N([C@@H](C)CO)C[C@H](C)[C@@H](CN(C)S(=O)(=O)c2ccc(Cl)cc2)O3)cc1`, the activity change, negative = cytotoxicity in test [1] (at 21 µM (top of the series)) was 11.7% (inactive).

For the compound `Cc1ccc(S(=O)(=O)N(C)C[C@@H]2Oc3ccc(NS(=O)(=O)c4ccccc4)cc3CC(=O)N([C@H](C)CO)C[C@@H]2C)cc1`, the activity change, negative = cytotoxicity in test [1] (at 19.5 µM (top of the series)) was 3.11% (inactive).

As for `C[C@H](CO)N1C[C@H](C)[C@@H](CN(C)CC2CCCCC2)Oc2c(NC(=O)c3ccncc3)cccc2C1=O`, the activity change, negative = cytotoxicity in test [1] (at 19.5 µM (top of the series)) was -21.4% (inactive).

`C[C@H]1CN([C@@H](C)CO)C(=O)Cc2cc(NS(=O)(=O)c3ccccc3)ccc2O[C@@H]1CN(C)S(=O)(=O)c1ccc(Cl)cc1`: in test [1] (at 19.5 µM (top of the series)), the activity change, negative = cytotoxicity was -7.84% (inactive).

As to `C[C@H]1CN([C@@H](C)CO)C(=O)c2cccc(NC(=O)c3ccncc3)c2O[C@H]1CN(C)Cc1ccc(-c2ccccc2)cc1`, in test [1] (at 19.5 µM (top of the series)), the activity change, negative = cytotoxicity is 18.2% (inactive).

On to `Cc1ccc(S(=O)(=O)Nc2ccc3c(c2)CC(=O)N([C@H](C)CO)C[C@H](C)[C@H](CN(C)Cc2ccc(Cl)c(Cl)c2)O3)cc1`, for which, in test [1] (at 19.5 µM (top of the series)), the activity change, negative = cytotoxicity was -1.7% (inactive).

Turning to `C[C@H]1CN([C@@H](C)CO)C(=O)c2cccc(NC(=O)c3nc4ccccc4s3)c2O[C@@H]1CN(C)S(=O)(=O)c1ccccc1`, the activity change, negative = cytotoxicity in test [1] (at 3.8 µM (top of the series)) is 28.8% (inactive).

Consider `C[C@@H]1CN([C@H](C)CO)C(=O)c2cccc(NC(=O)NC3CCCCC3)c2O[C@H]1CN(C)S(=O)(=O)c1ccc(F)cc1`, for which, in test [1] (at 19.5 µM (top of the series)), the activity change, negative = cytotoxicity is 1.29% (inactive).

For `Cc1ccc(S(=O)(=O)N(C)C[C@H]2Oc3ccc(NS(=O)(=O)c4ccccc4)cc3CC(=O)N([C@@H](C)CO)C[C@@H]2C)cc1`, in test [1] (at 19.5 µM (top of the series)), the activity change, negative = cytotoxicity was 26% (inactive).

In the case of `COc1ccc(CN(C)C[C@H]2Oc3c(NC(=O)c4ccncc4)cccc3C(=O)N([C@@H](C)CO)C[C@@H]2C)cc1`, the activity change, negative = cytotoxicity in test [1] (at 19.5 µM (top of the series)) was 5.41% (inactive).

Turning to `Cc1ccc(S(=O)(=O)N(C)C[C@H]2Oc3ccc(NS(=O)(=O)c4ccc(Cl)cc4)cc3CC(=O)N([C@H](C)CO)C[C@@H]2C)cc1`, the activity change, negative = cytotoxicity in test [1] (at 19.5 µM (top of the series)) is 3.37% (inactive).

On to `C[C@@H]1CN([C@H](C)CO)C(=O)c2cccc(NC(=O)c3nc4ccccc4s3)c2O[C@@H]1CN(C)S(=O)(=O)c1ccc(Cl)cc1`, for which, in test [1] (at 19.5 µM (top of the series)), the activity change, negative = cytotoxicity was 11.5% (inactive).

Turning to `C[C@H](CO)N1C[C@H](C)[C@@H](CN(C)Cc2ccc3c(c2)OCO3)Oc2c(NC(=O)c3ccncc3)cccc2C1=O`, in test [1] (at 19.5 µM (top of the series)), the activity change, negative = cytotoxicity is -18.8% (inactive).

In the case of `C[C@@H]1CN([C@@H](C)CO)C(=O)c2cccc(NC(=O)c3nc4ccccc4s3)c2O[C@@H]1CN(C)S(=O)(=O)c1ccccc1`, the activity change, negative = cytotoxicity in test [1] (at 19.5 µM (top of the series)) is -7.14% (inactive).

On to `Cc1ccc(S(=O)(=O)N(C)C[C@@H]2Oc3ccc(NS(=O)(=O)c4ccccc4)cc3CC(=O)N([C@@H](C)CO)C[C@@H]2C)cc1`, for which, in test [1] (at 19.5 µM (top of the series)), the activity change, negative = cytotoxicity is 9.31% (inactive).

With `Cc1ccc(S(=O)(=O)Nc2ccc3c(c2)CC(=O)N([C@H](C)CO)C[C@H](C)[C@H](CN(C)Cc2ccccc2)O3)cc1`, the activity change, negative = cytotoxicity in test [1] (at 19.5 µM (top of the series)) is -17.1% (inactive).

Take `Cc1ccc(S(=O)(=O)N(C)C[C@H]2Oc3ccc(NS(=O)(=O)c4ccccc4)cc3CC(=O)N([C@H](C)CO)C[C@@H]2C)cc1`: the activity change, negative = cytotoxicity in test [1] (at 19.5 µM (top of the series)) is -11.8% (inactive).

As for `Cc1noc(C)c1NC(=O)Nc1cccc2c1O[C@H](CN(C)S(C)(=O)=O)[C@H](C)CN([C@@H](C)CO)C2=O`, the activity change, negative = cytotoxicity in test [1] (at 19.5 µM (top of the series)) is 1.29% (inactive).

Usually AC50 stands for the midpoint of the concentration-response curve, whichever way the signal moves.
